In paper PMC9145865, “Effects of Rare Phytocannabinoids on the Endocannabinoid System of Human Keratinocytes” (International Journal of Molecular Sciences, 2022):

How the values were obtained:
NAPE-PLD = experiment: qRT-PCR gene expression of NAPE-PLD; format: cell-based, human; conditions: HaCaT cells, half-IC50 dose, 24 h, vs. control
Protocol: (§1) The HaCaT cells were seeded into 6-well plates at a density of 4 × 10^4 per well, incubated overnight and then treated with the selected pCBs (CBG (6.0 µM), CBC (4.0 µM), THCV (9.0 µM) and CBGA (13.0 µM)) for 24 h. The cell pellets were collected and RT-PCR reactions were performed using the RevertAid H Minus First Strand cDNA Synthesis Kit. The relative abundance was assessed via RT quantitative PCR (RT-qPCR) using the SensiFAST SYBR Lo-ROX Kit in an Applied Biosystems 7500 Fast Real-Time PCR System (Life Technologies). To provide the precise quantification of the initial target in each PCR reaction, the amplification plot was examined, as well as the point of early log phase of the product accumulation, which was defined by assigning a fluorescence threshold above the background that was defined as the threshold cycle number or “Ct. Differences” in threshold cycle number that was used to quantify the relative amount of the PCR targets that were contained within each tube. After PCR, a dissociation curve (melting curve) was constructed in the range of 60 °C to 95 °C [62] to evaluate the specificity of the amplification products. The relative expression of the different amplicons was calculated using the delta–delta Ct (ΔΔCt) method and then converted into the relative expression ratio (2^−ΔΔCt) for statistical analysis. […]

PEA = experiment: Endogenous PEA content by UHPLC-MS/MS; format: cell-based, human; conditions: HaCaT cells, half-IC50 dose, 24 h, vs. control
Protocol: (§2) The HaCaT cells were seeded into 6-well plates at a density of 4 × 10^4 per well, incubated overnight and then treated with the selected pCBs (6.0 µM of CBG, 4.0 µM of CBC, 9.0 µM of THCV and 13.0 µM of CBGA) for 24 h. The analytical standards that were used were N-arachidonoylethanolamine (AEA), N-arachidonoylethanolamine-d8 (AEA-d8), 2-arachidonoylglicerol (2-AG), 2-arachidonoylglicerol-d8 (2-AG-d8), N-palmitoylethanolamine (PEA) and […] (PEA-d4). The lipid fraction from these cells was extracted using chloroform–methanol–water (2:1:1 v/v) in the presence of ISs (1 ng/mL^−1 of AEA-d8, 100 ng mL^−1 of 2-AG-d8 and 1 ng mL^−1 of PEA-d4). The organic phase was dried under gentle nitrogen stream and then subjected to a micro-solid phase extraction (µSPE) procedure for a rapid clean-up using OMIX C18 tips from Agilent Technologies (Santa Clara, CA, USA). All analyses were performed using a Nexera XR LC 20 AD UHPLC system (Shimadzu Scientific Instruments, USA) that was equipped with Kinetex XB-C18 1.7 µm 100 × 2.1 mm from Phenomenex (Torrance, CA, USA) (for the LC parameters, see Figure S5) and coupled with a 4500 Qtrap from Sciex (Toronto, ON, Canada) that was equipped with a Turbo V electrospray ionization (ESI) source (the MS/MS parameters are shown in Table S1). The levels of AEA, 2-AG and PEA were then calculated as pmoles per 10^6 cells, as reported in [60].

skin = system: skin; parameters: method as in PMID 35056807; conditions: applied topically; ref [59]; cited from earlier work
MAGL = experiment: qRT-PCR gene expression of MAGL; format: cell-based, human; conditions: HaCaT cells, half-IC50 dose, 24 h, vs. control
Protocol: as §1

2-AG = experiment: Endogenous 2-AG content by UHPLC-MS/MS; format: cell-based, human; conditions: HaCaT cells, half-IC50 dose, 24 h, vs. control
Protocol: as §2

[1] = system: transformed human keratinocytes; parameters: method as in PMID 17157480; conditions: hyperproliferative conditions; ref [46]; cited from earlier work
FAAH = experiment: qRT-PCR gene expression of FAAH; format: cell-based, human; conditions: HaCaT cells, half-IC50 dose, 24 h, vs. control
Protocol: as §1

DAGLβ = experiment: Western blot protein expression of DAGLβ; format: cell-based, human; conditions: HaCaT cells, half-IC50 dose, 24 h, vs. control
Protocol: The HaCaT cells were seeded into 6-well plates at a density of 4 × 10^4 per well, incubated overnight and then treated with the selected pCBs (6.0 µM of CBG, 4.0 µM of CBC, 9.0 µM of THCV and 13.0 µM of CBGA) for 24 h. The cell pellets were collected and then lysed in an ice-cold lysis buffer (10 mM of EDTA, 50 mM of pH 7.4 Tris–HCl, 150 mM of sodium chloride, 1% Triton-X-100, 2 mM of phenylmethylsulfonyl fluoride, 2 mM of sodium orthovanadate, […] of leupeptin and […] of aprotinin). The amount of protein was determined using the Bio-Rad Protein assay (Bio-Rad Laboratories, Hemel Hempstead, UK). An equal amount of protein (60 µg) was loaded onto 10% sodium dodecyl sulfate–polyacrylamide gels and blotted onto polyvinylidene fluoride sheets (Amersham Biosciences, Piscataway, NJ, USA). The membranes were blocked with dried 5% non-fat milk for 1 h and then incubated with suitable primary antibodies. Detection was performed using Azure Biosystems c400 (Dublin, CA, USA). The membranes were stripped using the Restore Western Blot Stripping Buffer from Thermo Fisher Scientific (Waltham, MA, USA) for 30 min under agitation at room temperature, according to the manufacturer’s instructions. The primary antibodies (Table 6) that were used were obtained from the following sources: […]

CB1 = conditions: in vivo and in vitro; ref [53]; cited from earlier work

CCCCCc1cc(O)c2c(c1)OC(C)(CCC=C(C)C)C=C2 (centres unmarked) [CBC, cannabichromene]
gene expression of NAPE-PLD (in words) (NAPE-PLD): significantly increased

CCCCCc1cc(O)c(C/C=C(\C)CCC=C(C)C)c(O)c1 [CBG, cannabigerol]
endogenous PEA content (PEA): markedly increased
skin health after topical application (skin): reducing the appearance of redness and improving barrier function
gene expression of MAGL (in words) (MAGL): significantly increase
endogenous 2-AG content (2-AG): markedly increased
proliferation of transformed human keratinocytes [1]: inhibit the proliferation

CCCCCc1cc(O)c(C/C=C(\C)CCC=C(C)C)c(O)c1C(=O)O [CBGA, cannabigerolic acid]
Gene Expression FAAH (FAAH): FAAH ↓+++
gene expression of FAAH (in words) (FAAH): significantly reduced

CCCc1cc(O)c2c(c1)OC(C)(C)[C@@H]1CCC(C)=C[C@@H]21 [THCV, Δ^9-tetrahydrocannabivarin]
DAGLβ protein expression (in words) (DAGLβ): significantly reduced
Protein Expression DAGLβ (DAGLβ): ↓+++
activity at CB1 (CB1): CB1 antagonist
